24 molecules from patent US10071984B2, “Histone demethylase inhibitors” (Celgene Quanticel Research, Inc., priority 2014, dated 2018) can be followed below.

One experiment deals with PHF8 (Homo sapiens (Human), UniProt Q9UPP1). Briefly: PHF8 in vitro enzyme inhibition assay (TR-FRET). It counts as biochemical. As to conditions: 3 nM PHF8, H3K9me1-biotin peptide. An excerpt: (§1) This assay determines the ability of a test compound to inhibit FBXL11, FBXL10, and PHF8 demethylase activity. Baculovirus expressed FBXL11 (GenBank Accession #NM_012308, AA1-1162) was purchased from BPS Bioscience (Cat#50102). Baculovirus expressed FBXL10 (GenBank Accession #NM_032590, AA 1-650) was purchased from BPS Bioscience (Cat #50120). Baculovirus expressed PHF8 (GenBank Accession NP_055922.1) was purchased from Active Motif (Cat#31435).
The ability of test compounds to inhibit the activity of PHF8 was determined in 384-well plate format under the following reaction conditions: 3 nM PHF8, 200 nM H3K9me1-biotin labeled peptide (Anaspec cat #64358), 0.5 μM alpha-ketoglutaric acid in assay buffer of 50 mM HEPES, pH7.3, 0.005% Brij35, 0.5 mM TCEP, 0.2 mg/ml BSA, 50 μM sodium L-ascorbate, and 5 μM ammonium iron(II) sulfate. Reaction product was determined quantitatively by TR-FRET after the addition of detection reagent Phycolink Streptavidin-allophycocyanin (Prozyme) and Europium-anti-unmodified-histone H3 lysine 9/lysine27 (H3K9/K27) antibody (PerkinElmer) in the presence of 5 mM EDTA in LANCE detection buffer (PerkinElmer) at a final concentration of 25 nM and 0.5 nM, respectively.
The assay reaction was initiated by the following: 2 μl of the mixture of 600 nM H3K9me1-biotin labeled peptide and 1.5 μM alpha-ketoglutaric acid with 2 μl of 11-point serial diluted inhibitor in 3% DMSO were added to each well of the plate, followed by the addition of 2 μl of 9 nM PHF8 to initiate the reaction. The reaction mixture was incubated at room temperature for 15 minutes, and terminated by the addition of 6 μl of 5 mM EDTA in LANCE detection buffer containing 50 nM Phycolink Streptavidin-allophycocyanin and 1 nM Europium-anti-unmodified H3K9/K27 antibody. Plates were read by EnVision Multilabel Reader in TR-FRET mode (excitation at 320 nm, emission at 615 nm and 665 nm) after 1 hour incubation at room temperature. A ratio was calculated (665/615) for each well and fitted to determine inhibition constant (IC50).
(§2) The ability of the compounds disclosed herein to inhibit demethylase activity was quantified and the respective IC50 value was determined.
On the technique in general: In TR-FRET formats the signal depends on donor and acceptor labels being close together.

The target of the next experiment is FBXL10 (Homo sapiens (Human), UniProt Q8NHM5). As to the kind of experiment: FBXL10 in vitro enzyme inhibition assay (AlphaScreen). As to conditions: 0.3 nM FBXL10, H3K36me2-biotin peptide. Format: biochemical.
Excerpt: as §1
The ability of test compounds to inhibit the activity of FBXL10 was determined in 384-well plate format under the following reaction conditions: 0.3 nM FBXL10, 30 nM H3K36me2-biotin labeled peptide (Anaspec cat #64442), 0.2 μM alpha-ketoglutaric acid in assay buffer of 50 mM HEPES, pH7.3, 0.005% Brij35, 0.5 mM TCEP, 0.2 mg/ml BSA, 50 μM sodium L-ascorbate, 5 μM ammonium iron(II) sulfate. Reaction product is determined quantitatively by AlphaScreen detection after the addition of detection reagents anti-H3K36me1 antibody, AlphaScreen® Streptavidin-coated Donor beads, and AlphaScreen® Protein A Acceptor beads in 50 mM HEPES, pH7.3, 10 mM NaCl, 0.005% Brij35, 5 mM EDTA, 2 mg/ml BSA to final 10 μg/ml beads.
The assay reaction was initiated by the following: 3 μl of the mixture of 90 nM H3K36me2-biotin labeled peptide and 0.6 μM alpha-ketoglutaric acid with 3 μl of 11-point serial diluted inhibitor in 3% DMSO are added to each well of 384 well Proxiplate (Perkin Elmer), followed by the addition of 3 μl of 0.9 nM FBXL10 to initiate the reaction. The reaction mixture is incubated at room temperature for 1 hour, and terminated by the addition of 3 μl of appropriate dilution of anti H3K36me1 antibody in 50 mM HEPES, pH7.3, 10 mM NaCl, 0.005% Brij35, 5 mM EDTA, 2 mg/ml BSA. Plates will then incubated at room temperature for 40 minutes, followed by addition of 3 ul of 50 μg/ml AlphaScreen® Streptavidin-coated Donor beads and AlphaScreen® Protein A Acceptor beads in 50 mM HEPES, pH7.3, 10 mM NaCl, 0.005% Brij35, 5 mM EDTA, 2 mg/ml BSA. Plates will then be read by EnVision Multilabel Reader in AlphaScreen mode after minimum 2 hour incubation at room temperature. The AlphaScreen signal for each well is used to determine inhibition constant (IC50).
as §2
For orientation: In Alpha technology, singlet oxygen from a donor bead excites a nearby acceptor bead.

FBXL10, sequence (Q8NHM5 1-650): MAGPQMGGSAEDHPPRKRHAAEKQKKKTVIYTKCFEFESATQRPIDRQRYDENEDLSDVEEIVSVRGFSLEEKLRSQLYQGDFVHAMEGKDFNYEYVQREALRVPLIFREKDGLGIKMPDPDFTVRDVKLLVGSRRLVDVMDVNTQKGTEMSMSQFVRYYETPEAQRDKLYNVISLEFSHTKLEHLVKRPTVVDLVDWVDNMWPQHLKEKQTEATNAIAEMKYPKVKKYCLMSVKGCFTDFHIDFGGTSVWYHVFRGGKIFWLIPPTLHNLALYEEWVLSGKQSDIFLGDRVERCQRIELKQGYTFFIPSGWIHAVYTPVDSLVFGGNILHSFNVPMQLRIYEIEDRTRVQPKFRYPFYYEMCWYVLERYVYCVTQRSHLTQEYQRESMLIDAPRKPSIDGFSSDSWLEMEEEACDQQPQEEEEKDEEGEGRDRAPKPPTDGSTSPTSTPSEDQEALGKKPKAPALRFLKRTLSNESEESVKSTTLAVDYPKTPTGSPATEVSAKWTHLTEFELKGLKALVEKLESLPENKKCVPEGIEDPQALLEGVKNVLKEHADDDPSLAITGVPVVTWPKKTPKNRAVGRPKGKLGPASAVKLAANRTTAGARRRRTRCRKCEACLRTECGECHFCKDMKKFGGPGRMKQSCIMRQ
PHF8, sequence (Q9UPP1 37-1060): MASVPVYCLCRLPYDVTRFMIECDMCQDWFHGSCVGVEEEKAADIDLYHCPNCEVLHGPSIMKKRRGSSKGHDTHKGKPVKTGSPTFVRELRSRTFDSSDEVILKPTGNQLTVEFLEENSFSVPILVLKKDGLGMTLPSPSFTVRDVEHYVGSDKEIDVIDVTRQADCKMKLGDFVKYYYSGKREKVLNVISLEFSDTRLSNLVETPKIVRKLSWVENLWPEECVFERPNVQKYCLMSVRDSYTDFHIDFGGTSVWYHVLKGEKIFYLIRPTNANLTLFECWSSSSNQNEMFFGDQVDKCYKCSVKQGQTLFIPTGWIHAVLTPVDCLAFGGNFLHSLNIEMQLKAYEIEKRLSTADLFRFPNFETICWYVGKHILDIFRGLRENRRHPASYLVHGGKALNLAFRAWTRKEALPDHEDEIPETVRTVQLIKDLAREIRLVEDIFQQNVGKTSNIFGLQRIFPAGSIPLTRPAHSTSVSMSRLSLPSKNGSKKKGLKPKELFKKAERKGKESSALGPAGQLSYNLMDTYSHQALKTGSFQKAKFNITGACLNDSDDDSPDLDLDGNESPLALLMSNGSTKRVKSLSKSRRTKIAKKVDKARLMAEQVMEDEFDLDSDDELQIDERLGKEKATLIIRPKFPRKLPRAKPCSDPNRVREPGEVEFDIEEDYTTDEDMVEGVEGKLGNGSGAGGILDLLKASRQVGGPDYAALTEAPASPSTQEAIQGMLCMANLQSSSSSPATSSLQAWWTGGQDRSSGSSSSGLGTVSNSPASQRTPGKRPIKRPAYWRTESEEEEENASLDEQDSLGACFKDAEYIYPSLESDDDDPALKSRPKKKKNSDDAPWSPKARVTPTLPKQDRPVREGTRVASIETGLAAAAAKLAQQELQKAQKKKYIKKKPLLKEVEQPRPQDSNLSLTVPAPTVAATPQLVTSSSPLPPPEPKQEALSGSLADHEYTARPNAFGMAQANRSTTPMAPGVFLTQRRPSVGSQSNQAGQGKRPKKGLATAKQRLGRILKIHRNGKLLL

Take `Cn1cnc(-c2cc(-c3c[nH]nn3)ccn2)c1-c1ccc(F)cc1` [Example 3, 2-[5-(4-fluorophenyl)-1-methylimidazol-4-yl]-4-(1H-triazol-4-yl)pyridine]: the IC50 at PHF8 was 100 to 1000 nM; against FBXL10, ≤ 100 nM.

Take `FC(F)(F)COc1ccccc1CCn1cnc(-c2cc(-c3c[nH]nn3)ccn2)c1` [Example 10, 4-(1H-triazol-4-yl)-2-[1-[2-[2-(2,2,2-trifluoroethoxy)phenyl]ethyl]imidazol-4-yl]pyridine]: the IC50 was 100 to 1000 nM against PHF8 and ≤ 100 nM against FBXL10. The corresponding values for `c1ccc(OCC2CC2)c(CCn2cnc(-c3cc(-c4c[nH]nn4)ccn3)c2)c1` [Example 11, 2-[1-[2-[2-(cyclopropylmethoxy)phenyl]ethyl]imidazol-4-yl]-4-(1H-triazol-4-yl)pyridine] are 100 to 1000 nM and ≤ 100 nM.

For `c1ccc2c(c1)OCCC2Cn1cnc(-c2cc(-c3c[nH]nn3)ccn2)c1` (stereo not drawn) [Example 12, 2-[1-(3,4-dihydro-2H-chromen-4-ylmethyl)imidazol-4-yl]-4-(1H-triazol-4-yl)pyridine], the IC50 at PHF8 and on FBXL10 was ≤ 100 nM throughout. Consider `N#Cc1[nH]nnc1-c1ccnc(-c2cn(Cc3ccccc3Cl)cn2)c1` [Example 13, 4-[2-[1-[(2-chlorophenyl)methyl]imidazol-4-yl]pyridin-4-yl]-1H-triazole-5-carbonitrile], for which the figures for the IC50 against PHF8 and on FBXL10 were 1000 to 10000 nM and ≤ 100 nM, respectively. Regarding `N#Cc1[nH]nnc1-c1ccnc(-c2cn(Cc3cccc(Cl)c3Cl)cn2)c1` [Example 14, 4-[2-[1-[(2,3-dichlorophenyl)methyl]imidazol-4-yl]pyridin-4-yl]-1H-triazole-5-carbonitrile], the figures for the IC50 against PHF8 and at FBXL10 were 1000 to 10000 nM and ≤ 100 nM, respectively.

Consider `N#Cc1[nH]nnc1-c1ccnc(-c2cn(CC3CCCc4ccccc43)cn2)c1` (stereo not drawn) [Example 15, 4-[2-[1-(1,2,3,4-tetrahydronaphthalen-1-ylmethyl)imidazol-4-yl]pyridin-4-yl]-1H-triazole-5-carbonitrile], for which the IC50 was 100 to 1000 nM on PHF8 and ≤ 100 nM against FBXL10. On the same counts, the results for `N#Cc1[nH]nnc1-c1ccnc(-c2cn(CCc3cccc4ccccc34)cn2)c1` [Example 16, 4-[2-[1-(2-naphthalen-1-ylethyl)imidazol-4-yl]pyridin-4-yl]-1H-triazole-5-carbonitrile] are 100 to 1000 nM and ≤ 100 nM. Consider `c1ccc(COc2ccccc2CCn2cnc(-c3cc(-c4c[nH]nn4)ccn3)c2)cc1` [Example 17, 2-[1-[2-(2-phenylmethoxyphenyl)ethyl]imidazol-4-yl]-4-(1H-triazol-4-yl)pyridine], for which the IC50 at PHF8 is 1000 to 10000 nM; against FBXL10, ≤ 100 nM.

Regarding `c1ccc(Oc2ccccc2CCn2cnc(-c3cc(-c4c[nH]nn4)ccn3)c2)cc1` [Example 18, 2-[1-[2-(2-phenoxyphenyl)ethyl]imidazol-4-yl]-4-(1H-triazol-4-yl)pyridine], the values for the IC50 against PHF8 and against FBXL10 were 1000 to 10000 nM and ≤ 100 nM, respectively. Turning to `Clc1cccc(Cn2cnc(-c3cc(-c4nn[nH]c4I)ccn3)c2)c1Cl` [Example 19, 2-[1-[(2,3-dichlorophenyl)methyl]imidazol-4-yl]-4-(5-iodo-1H-triazol-4-yl)pyridine], the IC50 at PHF8 was 100 to 1000 nM; against FBXL10, ≤ 100 nM. The corresponding values for `Fc1[nH]nnc1-c1ccnc(-c2cn(Cc3cccc(Cl)c3Cl)cn2)c1` [Example 20, 2-[1-[(2,3-dichlorophenyl)methyl]imidazol-4-yl]-4-(5-fluoro-1H-triazol-4-yl)pyridine] are 100 to 1000 nM and ≤ 100 nM. With `COc1cc(-c2c(-c3cc(-c4c[nH]nn4)ccn3)ncn2C)ccc1F` [Example 24, 2-[5-(4-fluoro-3-methoxyphenyl)-1-methylimidazol-4-yl]-4-(1H-triazol-4-yl)pyridine], the values for the IC50 against PHF8 and against FBXL10 were 100 to 1000 nM and ≤ 100 nM, respectively. Take `Fc1c(Cn2cnc(-c3cc(-c4c[nH]nn4)ccn3)c2)cccc1OC(F)(F)F` [Example 26, 2-[1-[[2-fluoro-3-(trifluoromethoxy)phenyl]methyl]imidazol-44-yl]-4-(1H-triazol-4-yl)pyridine]: the IC50 against PHF8 is 1000 to 10000 nM. On the same count and under the same terms, next, `c1ccc(-c2ccccc2CCn2cnc(-c3cc(-c4c[nH]nn4)ccn3)c2)cc1` [Example 27, 2-[1-[2-(2-phenylphenyl)ethyl]imidazol-4-yl]-4-(1H-triazol-4-yl)pyridine]: 1000 to 10000 nM. Turning to `Cc1cccc(Cn2cnc(-c3cc(-c4c[nH]nn4)ccn3)c2)c1F` [Example 28, 2-[1-[(2-fluoro-3-methylphenyl)methyl]imidazol-4-yl]-4-(1H-triazol-4-yl)pyridin], the results for the IC50 at PHF8 and against FBXL10 were 100 to 1000 nM and ≤ 100 nM, respectively. On the same counts, the results for `Fc1c(Cl)cccc1Cn1cnc(-c2cc(-c3c[nH]nn3)ccn2)c1` [Example 29, 2-[1-[(3-chloro-2-fluorophenyl)methyl]imidazol-4-yl]-4-(1H-triazol-4-yl)pyridine] are ≤ 100 nM and ≤ 100 nM.

With `COc1cccc(Cn2cnc(-c3cc(-c4c[nH]nn4)ccn3)c2)c1F` [Example 30, 2-[1-[(2-fluoro-3-methoxyphenyl)methyl]imidazol-4-yl]-4-(1H-triazol-4-yl)pyridine], the values for the IC50 against PHF8 and against FBXL10 were 100 to 1000 nM and ≤ 100 nM, respectively. The corresponding values for `FC(F)(F)c1ccccc1CCn1cnc(-c2cc(-c3c[nH]nn3)ccn2)c1` [Example 31, 4-(1H-triazol-4-yl)-2-[1-[2-[2-(trifluoromethyl)phenyl]ethyl]imidazol-4-yl]pyridine] are 100 to 1000 nM and ≤ 100 nM. Take `CC(C)(Cn1cnc(-c2cc(-c3c[nH]nn3)ccn2)c1)c1ccccc1Cl` [Example 32, 2-[1-[2-(2-chlorophenyl)-2-methylpropyl]imidazol-4-yl]-4-(1H-triazol-4-yl)pyridine]: the IC50 was 100 to 1000 nM against PHF8 and ≤ 100 nM on FBXL10. Regarding `CC(Cc1ccccc1)n1cnc(-c2cc(-c3c[nH]nn3)ccn2)c1` (stereo not drawn) [Example 33, 2-[1-(1-phenylpropan-2-yl)imidazol-4-yl]-4-(1H-triazol-4-yl)pyridine], the IC50 against PHF8 is 1000 to 10000 nM. On to `Fc1[nH]nnc1-c1ccnc(-c2cn(CCc3cccc4ccccc34)cn2)c1` [Example 35, 4-(5-fluoro-1H-triazol-4-yl)-2-[1-(2-naphthalen-1-ylethyl)imidazol-4-yl]pyridine], for which the figures for the IC50 on PHF8 and on FBXL10 were 100 to 1000 nM and ≤ 100 nM, respectively. On the same counts, the results for `Clc1[nH]nnc1-c1ccnc(-c2cn(CCc3cccc4ccccc34)cn2)c1` [Example 36, 4-(5-chloro-1H-triazol-4-yl)-2-[1-(2-naphthalen-1-ylethyl)imidazol-4-yl]pyridine] are 1000 to 10000 nM and ≤ 100 nM.

With `FC(F)(F)c1[nH]nnc1-c1ccnc(-c2cn(CCc3cccc4ccccc34)cn2)c1` [Example 37, 2-[1-(2-naphthalen-1-ylethyl)imidazol-4-yl]-4-[5-(trifluoromethyl)-1H-triazol-4-yl]pyridine], the concentration for half-maximal inhibition (IC50) against PHF8 was > 10000 nM; against FBXL10 it was ≤ 100 nM.

One may read the IC50 as the point on the concentration scale where inhibition reaches its midpoint.
